Test results reported in article PMC2699469 (PLoS Pathogens, 2009).
Peptide text beside a SMILES is read from it. * marks the point of attachment. Palmitoyl = CCCCCCCCCCCCCCCC(=O)*

The molecules below were run on HIV-1 ENV-mediated fusion of Jurkat HXBc2 (effector) with Jurkat E6-1 (target) cells (assay: Cell-cell fusion inhibition assay (DiI/DiD lipophilic probes, flow cytometry)). Settings: Jurkat E6-1 + Jurkat HXBc2 1:1, co-incubated 6 h, eight peptide concentrations, FACS, Hill-type fit; at least four independent experiments, ± standard deviation.
Type: cell-based
Protocol: The protocol utilizing Jurkat E6-1 and Jurkat HXBc2 cells for a cell-cell fusion assay was previously described. In short, Jurkat E6-1 and Jurkat HXBc2 cells were labeled with DiI and DiD lipophilic fluorescent probes, respectively. The two cell populations were co-incubated, in a ratio of 1∶1, for 6 h in the presence of eight different concentrations of the inhibitory peptides. Prior to measurements the cells were washed, spinned, dissolved in PBS, and put on ice. Cells co-incubated without the presence of peptides served as an optimal fusion reference. Unlabeled cells that were handled similarly served as an intrinsic fluorescence control. Cells labeled separately with DiI or DiD were used to adjust the optimal separation of fluorescent signals. Jurkat HXBc2 cells labeled with DiI were co-incubated with Jurkat HXBc2 cells labeled with DiD for a fusion background that was subtracted from the measurements of the experiment. The following alterations were applied to the original protocol: (i) 5 µL of a 1 mg/mL DiI or DiD solution in dimethylsulfoxide (DMSO) was added to 1 mL of 4×10^6 cells/mL Jurkat E6-1 or Jurkat HXBc2 cells, respectively. (ii) For each data point 150,000 events were collected. Measurements were performed on a FACSort machine, upgraded to a FACSCalibur cell analyzer (Becton Dickinson). […] For the fitting, we uploaded the X and Y values of the raw data (after subtracting the background) into a nonlinear least squares regression (curve fitter) program that provided the IC50 value (A of the equation), as well as the c value.
CCCCCCCCCCCCCCCC(=O)N[C@@H](CO)C(=O)NCC(=O)N[C@H](C(=O)N[C@@H](CC(=O)O)C(=O)N[C@@H](CCC(N)=O)C(=O)N[C@@H](CCC(=O)O)C(=O)N[C@@H](CCC(N)=O)C(=O)N[C@@H](CC(N)=O)C(=O)N[C@@H](CC(N)=O)C(=O)N[C@@H](CC(C)C)C(=O)N[C@H](C(=O)N[C@@H](CCCNC(=N)N)C(=O)N[C@@H](CC(C)C)C(=O)N[C@H](C(=O)N[C@@H](CCC(=O)O)C(=O)N[C@@H](C)C(=O)N[C@@H](CCC(N)=O)C(=O)N[C@H](C(=O)N[C@@H](Cc1c[nH]cn1)C(=O)N[C@@H](CCC(=O)O)C(=O)N[C@@H](CC(C)C)C(=O)N[C@@H](CCC(N)=O)C(=O)N[C@@H](CC(C)C)C(=O)N[C@H](C(=O)N[C@@H](CCC(N)=O)C(=O)N[C@@H](Cc1c[nH]c2ccccc12)C(=O)N[C@@H](CCCCN)C(=O)N[C@H](C(=O)N[C@@H](CCCCN)C(=O)N[C@@H](CCC(N)=O)C(=O)N[C@@H](CC(C)C)C(=O)N[C@@H](CC(C)C)C(=O)N[C@@H](C)C(=O)N[C@@H](CCCNC(=N)N)C(=O)N[C@H](C(=O)N[C@@H](CC(C)C)C(=O)N[C@@H](CCCCN)C(N)=O)[C@@H](C)CC)[C@@H](C)CC)[C@@H](C)O)[C@@H](C)CC)[C@@H](C)CC)[C@@H](C)O)[C@@H](C)CC [C16-N36 MUTe,g] (Palmitoyl-SGIDQEQNNLTRLIEAQIHELQLTQWKIKQLLARILK-NH2) was tested, and the IC50 was 162 ± 4 nM. With CCCCCCCCCCCCCCCC(=O)NCCCC[C@H](NC(=O)[C@H](CC(C)C)NC(=O)[C@@H](NC(=O)[C@H](CCCNC(=N)N)NC(=O)[C@H](C)NC(=O)[C@H](CC(C)C)NC(=O)[C@H](CC(C)C)NC(=O)[C@H](CCC(N)=O)NC(=O)[C@H](CCCCN)NC(=O)[C@@H](NC(=O)[C@H](CCCCN)NC(=O)[C@H](Cc1c[nH]c2ccccc12)NC(=O)[C@H](CCC(N)=O)NC(=O)[C@@H](NC(=O)[C@H](CC(C)C)NC(=O)[C@H](CCC(N)=O)NC(=O)[C@H](CC(C)C)NC(=O)[C@H](CCC(=O)O)NC(=O)[C@H](Cc1c[nH]cn1)NC(=O)[C@@H](NC(=O)[C@H](CCC(N)=O)NC(=O)[C@H](C)NC(=O)[C@H](CCC(=O)O)NC(=O)[C@@H](NC(=O)[C@H](CC(C)C)NC(=O)[C@H](CCCNC(=N)N)NC(=O)[C@@H](NC(=O)[C@H](CC(C)C)NC(=O)[C@H](CC(N)=O)NC(=O)[C@H](CC(N)=O)NC(=O)[C@H](CCC(N)=O)NC(=O)[C@H](CCC(=O)O)NC(=O)[C@H](CCC(N)=O)NC(=O)[C@H](CC(=O)O)NC(=O)[C@@H](NC(=O)CNC(=O)[C@@H](N)CO)[C@@H](C)CC)[C@@H](C)O)[C@@H](C)CC)[C@@H](C)CC)[C@@H](C)O)[C@@H](C)CC)[C@@H](C)CC)C(N)=O [N36 MUTe,g-C16] (H-SGIDQEQNNLTRLIEAQIHELQLTQWKIKQLLARILK(Palmitoyl)-NH2) the IC50 was 8.8 ± 4 nM. For “H-SGIDQEQNNLTRLIEAQIHELQLTQWKIKQLLARILK-NH2 [N36 MUTe,g, reference compound]”, the IC50 was 936 ± 36 nM.
